Measured values: patent US20100137313A1 (ASTRAZENECA AB, priority 2008, published 2010)

Target: S. pneumoniae Topoisomerase IV ATPase (ParE) (Streptococcus pneumoniae serotype 4, UniProt Q59961)
Test: S. pneumoniae Topoisomerase IV ATPase inhibition
Assay type: biochemical
Conditions: values marked * are an average of two or more data points, read-out: % Inh (13 μM) of S. pneumoniae Topoisomerase IV ATPase
Outline: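 Malachite green/ammonium molybdate phosphate detection, A650. 1.25 nM ParE, 160 μM ATP, sheared salmon sperm DNA 5 μg/ml, 20 mM Tris pH 8.0, 8.0 mM MgCl2. Controls: 2% DMSO = 0%, 20 μM EDTA = 100% inhibition; IC50 over 10 concentrations.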

Chain of S. pneumoniae Topoisomerase IV ATPase (ParE) (Q59961 whole entry): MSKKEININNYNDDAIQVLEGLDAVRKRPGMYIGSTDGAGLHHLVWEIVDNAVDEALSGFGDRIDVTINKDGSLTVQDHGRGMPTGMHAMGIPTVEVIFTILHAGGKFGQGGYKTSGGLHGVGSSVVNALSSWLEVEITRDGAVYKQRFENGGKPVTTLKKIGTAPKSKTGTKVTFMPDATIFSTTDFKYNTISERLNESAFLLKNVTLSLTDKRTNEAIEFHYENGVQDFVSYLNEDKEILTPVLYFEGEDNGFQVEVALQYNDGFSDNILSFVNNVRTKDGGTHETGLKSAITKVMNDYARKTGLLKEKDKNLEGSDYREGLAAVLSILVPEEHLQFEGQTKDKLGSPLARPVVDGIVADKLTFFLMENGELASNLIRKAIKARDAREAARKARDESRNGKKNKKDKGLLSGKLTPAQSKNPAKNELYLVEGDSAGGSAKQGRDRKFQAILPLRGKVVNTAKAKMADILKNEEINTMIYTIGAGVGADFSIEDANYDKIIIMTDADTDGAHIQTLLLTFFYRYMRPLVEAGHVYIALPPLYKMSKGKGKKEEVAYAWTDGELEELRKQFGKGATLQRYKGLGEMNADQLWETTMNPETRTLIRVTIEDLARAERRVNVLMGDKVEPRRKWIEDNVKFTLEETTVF

Compound COC1CCN(c2nc(Nc3ccc(F)c(Cl)c3)ncc2-c2cncc(C(=O)O)c2)CC1 [Example 249, 5-[2-[(3-chloro-4-fluorophenyl)amino]-4-(4-methoxypiperidin-1-yl)pyrimidin-5-yl]pyridine-3-carboxylic acid] has an inhibition at 13 µM of 70.8%.

For O=C(O)c1cncc(-c2cnc(Nc3ccc(F)c(Cl)c3)nc2N2CCC(O)C2)c1 (stereo not drawn) [Example 250, 5[2-[(3-chloro-4-fluorophenyl)amino]-4-(3-hydroxypyrrolidin-1-yl)pyrimidin-5-yl]pyridine-3-carboxylic acid], the inhibition at 13 µM was 74.4%.

CC1CCCN1c1nc(Nc2ccc(F)c(Cl)c2)ncc1-c1cncc(C(=O)O)c1 (stereo not drawn) [Example 251, 5-[2-[(3-chloro-4-fluorophenyl)amino]-4-(2-methylpyrrolidin-1-yl)pyrimidin-5-yl]pyridine-3-carboxylic acid] gave an inhibition at 13 µM of 79.9%.

CC1CCC(C)N1c1nc(Nc2ccc(F)c(Cl)c2)ncc1-c1cncc(C(=O)O)c1 (stereo not drawn) [Example 252, 5-[2-[(3-chloro-4-fluorophenyl)amino]-4-(2,5-dimethylpyrrolidin-1-yl)pyrimidin-5-yl]pyridine-3-carboxylic acid] gave an inhibition at 13 µM of 81.8%.

For O=C(O)c1cncc(-c2cnc(Nc3ccc(F)c(Cl)c3)nc2N2CCC2)c1 [Example 253, 5-[4-(azetidin-1-yl)-2-[(3-chloro-4-fluorophenyl)amino]-pyrimidin-5-yl]pyridine-3-carboxylic acid], the inhibition at 13 µM was 75.1%.

O=C(O)c1cncc(-c2cnc(Nc3ccc(F)c(Cl)c3)nc2N2CCCCCC2)c1 [Example 254, 5-[4-(azepan-1-yl)-2-[(3-chloro-4-fluorophenyl)amino]-pyrimidin-5-yl]pyridine-3-carboxylic acid] gave an inhibition at 13 µM of 16.8%.

In the case of O=C(O)c1cncc(-c2cnc(Nc3ccc(F)c(Cl)c3)nc2N[C@H]2CC[C@H](O)CC2)c1 [Example 255, 5-[2-[(3-chloro-4-fluorophenyl)amino]-4-[(4-hydroxycyclohexyl)-amino]pyrimidin-5-yl]pyridine-3-carboxylic acid], the inhibition at 13 µM is reported as 72.8%.

CC(=O)NC1CCN(c2nc(Nc3ccc(F)c(Cl)c3)ncc2-c2cncc(C(=O)O)c2)CC1 [Example 256, 5-[4-(4-acetamidopiperidin-1-yl)-2-[(3-chloro-4-fluorophenyl)amino]-pyrimidin-5-yl]pyridine-3-carboxylic acid] was tested, and the inhibition at 13 µM was 78.8%.

Work on O=C(O)c1cncc(-c2cnc(Nc3ccc(F)c(Cl)c3)nc2NCCc2c[nH]cn2)c1 [Example 257, 5-(2-[(3-chloro-4-fluorophenyl)amino]-4-{[2-(1H-imidazol-4-yl)ethyl]amino}pyrimidin-5-yl)pyridine-3-carboxylic acid] yielded an inhibition at 13 µM of 83.8%.

In the case of O=C(O)c1cncc(-c2cnc(Nc3ccc(F)c(Cl)c3)nc2NCCc2nc3ccccc3[nH]2)c1 [Example 258, 5-(4-{[2-(1H-benzimidazol-2-yl)ethyl]amino}-2-[(3-chloro-4-fluorophenyl)amino]-pyrimidin-5-yl)pyridine-3-carboxylic acid], the inhibition at 13 µM is reported as 88%.

Work on O=C(O)c1cncc(-c2cnc(Nc3ccc(F)c(Cl)c3)nc2NCCn2cccn2)c1 [Example 260, 5-(2-[(3-chloro-4-fluorophenyl)amino]-4-{[2-(1H-pyrazol-1-yl)ethyl]amino}pyrimidin-5-yl)pyridine-3-carboxylic acid] yielded an inhibition at 13 µM of 103%.

Work on Cc1ncsc1CCNc1nc(Nc2ccc(F)c(Cl)c2)ncc1-c1cncc(C(=O)O)c1 [Example 262, 5-(2-[(3-chloro-4-fluorophenyl)amino]-4-{[2-(4-methyl-1,3-thiazol-5-yl)ethyl]amino}pyrimidin-5-yl)pyridine-3-carboxylic acid] yielded an inhibition at 13 µM of 80.5%.

CN1CCN(CCNc2nc(Nc3ccc(F)c(Cl)c3)ncc2-c2cncc(C(=O)O)c2)CC1 [Example 263, 5-(2-[(3-chloro-4-fluorophenyl)amino]-4-{[2-(4-methylpiperazin-1-yl)ethyl]amino}pyrimidin-5-yl)pyridine-3-carboxylate acid] gave an inhibition at 13 µM of 86.2%.

Work on O=C(O)/C=C/c1cccc(-c2cnc(Nc3ccc(F)c(Cl)c3)nc2NCCc2c[nH]cn2)c1 [Example 264, (2E)-3-[3-(2-[(3-chloro-4-fluorophenyl)amino]-4-{[2-(1H-imidazol-4-yl)ethyl]amino}pyrimidin-5-yl)phenyl]prop-2-enoic acid] yielded an inhibition at 13 µM of 87.8%.

O=C(O)/C=C/c1cccc(-c2cnc(Nc3ccc(F)c(Cl)c3)nc2NCCc2nc3ccccc3[nH]2)c1 [Example 265, (2E)-3-[3-(4-{[2-(1H-benzimidazol-2-yl)ethyl]amino}-2-[(3-chloro-4-fluorophenyl)amino]pyrimidin-5-yl)phenyl]prop-2-enoic acid] gave an inhibition at 13 µM of 84.9%.

For O=C(O)/C=C/c1cccc(-c2cnc(Nc3ccc(F)c(Cl)c3)nc2NCCn2ccnc2)c1 [Example 266, (2E)-3-[3-(2-[(3-chloro-4-fluorophenyl)amino]-4-{[2-(1H-imidazol-1-yl)ethyl]amino}pyrimidin-5-yl)phenyl]prop-2-enoic acid], the inhibition at 13 µM was 109%.

O=C(O)/C=C/c1cccc(-c2cnc(Nc3ccc(F)c(Cl)c3)nc2NCCn2cccn2)c1 [Example 267, (2E)-3-[3-(2-[(3-chloro-4-fluorophenyl)amino]-4-{[2-(1H-pyrazol-1-yl)ethyl]amino}pyrimidin-5-yl)phenyl]prop-2-enoic acid] gave an inhibition at 13 µM of 87.3%.

With O=C(O)/C=C/c1cccc(-c2cnc(Nc3ccc(F)c(Cl)c3)nc2NCCc2cn[nH]c2)c1 [Example 268, (2E)-3-[3-(2-[(3-chloro-4-fluorophenyl)amino]-4-{[2-(1H-pyrazol-4-yl)ethyl]amino}pyrimidin-5-yl)phenyl]prop-2-enoic acid] the inhibition at 13 µM was 83%.

Cc1ncsc1CCNc1nc(Nc2ccc(F)c(Cl)c2)ncc1-c1cccc(/C=C/C(=O)O)c1 [Example 269, (2E)-3-[3-(2-[(3-chloro-4-fluorophenyl)amino]-4-{[2-(4-methyl-1,3-thiazol-5-yl)ethyl]amino}pyrimidin-5-yl)phenyl]prop-2-enoic acid] gave an inhibition at 13 µM of 78%.

In the case of CN1CCN(CCNc2nc(Nc3ccc(F)c(Cl)c3)ncc2-c2cccc(/C=C/C(=O)O)c2)CC1 [Example 270, (2E)-3-[3-(2-[(3-chloro-4-fluorophenyl)amino]-4-{[2-(4-methylpiperazin-1-yl)ethyl]amino}pyrimidin-5-yl)phenyl]prop-2-enoic acid], the inhibition at 13 µM is reported as 87.7%.

Compound O=C(O)c1cncc(-c2cnc(Nc3ccc(F)c(Cl)c3)nc2NCCCc2nc3ccccc3[nH]2)c1 [Example 271, 5-(4-(3-(1H-benzo[d]imidazol-2-yl)propylamino)-2-(3-chloro-4-fluorophenylamino)-pyrimidin-5-yl)nicotinic acid] has an inhibition at 13 µM of 86.6%.

Compound CC1CN(c2nc(Nc3ccc(F)c(Cl)c3)ncc2-c2cncc(C(=O)O)c2)CC(C)O1 (stereo not drawn) [Example 272, 5-(2-(3-chloro-4-fluorophenylamino)-4-(2,6-dimethylmorpholino)-pyrimidin-5-yl)nicotinic acid] has an inhibition at 13 µM of 81.1%.

Compound O=C(O)c1cncc(-c2cnc(Nc3ccc(F)c(Cl)c3)nc2N2CCOCC2)c1 [Example 273, 5-(2-(3-chloro-4-fluorophenylamino)-4-morpholinopyrimidin-5-yl)nicotinic acid] has an inhibition at 13 µM of 94.4%.

Cc1[nH]ncc1CCCNc1nc(Nc2ccc(F)c(Cl)c2)ncc1-c1cncc(C(=O)O)c1 [Example 274, 5-(2-(3-chloro-4-fluorophenylamino)-4-(3-(5-methyl-1H-pyrazol-4-yl)propylamino)pyrimidin-5-yl)nicotinic acid] gave an inhibition at 13 µM of 88%.

With O=C(O)c1cncc(-c2cnc(Nc3ccc(F)c(Cl)c3)nc2N2CCCCC2)c1 [Example 275, 5-(2-(3-chloro-4-fluorophenylamino)-4-(piperidin-1-yl)pyrimidin-5-yl)nicotinic acid] the inhibition at 13 µM was 134%.

With CC(=O)N1CCN(c2nc(Nc3ccc(F)c(Cl)c3)ncc2-c2cncc(C(=O)O)c2)CC1 [Example 276, 5-(4-(4-acetylpiperazin-1-yl)-2-(3-chloro-4-fluorophenylamino)-pyrimidin-5-yl)nicotinic acid] the inhibition at 13 µM was 80.3%.

In the case of COCCCNc1nc(Nc2ccc(F)c(Cl)c2)ncc1-c1cncc(C(=O)O)c1 [Example 277, 5-(2-(3-chloro-4-fluorophenylamino)-4-(3-methoxypropylamino)-pyrimidin-5-yl)nicotinic acid], the inhibition at 13 µM is reported as 85.9%.

Work on Cc1cnc(C(=O)NCCCNc2nc(Nc3ccc(F)c(Cl)c3)ncc2-c2cncc(C(=O)O)c2)cn1 [Example 278] yielded an inhibition at 13 µM of 77%.

O=C(O)c1cncc(-c2cnc(Nc3ccc(F)c(Cl)c3)nc2N[C@@H]2CCOC2)c1 [Example 279, (R)-5-(2-(3-chloro-4-fluorophenylamino)-4-(tetrahydrofuran-3-ylamino)pyrimidin-5-yl)nicotinic acid] showed an inhibition at 13 µM of 80.4%.

O=C(O)c1cncc(-c2cnc(Nc3ccc(F)c(Cl)c3)nc2N2CCCC2)c1 [Example 280, 5-(2-(3-chloro-4-fluorophenylamino)-4-(pyrrolidin-1-yl)pyrimidin-5-yl)nicotinic acid] was tested, and the inhibition at 13 µM was 83.4%.

Work on Cn1cncc1CNc1nc(Nc2ccc(F)c(Cl)c2)ncc1-c1cncc(C(=O)O)c1 [Example 281, 5-(2-(3-chloro-4-fluorophenylamino)-4-((1-methyl-1H-imidazol-5-yl)methylamino)pyrimidin-5-yl)nicotinic acid] yielded an inhibition at 13 µM of 95.8%.

Cn1cc(CNc2nc(Nc3ccc(F)c(Cl)c3)ncc2-c2cncc(C(=O)O)c2)cn1 [Example 282, 5-(2-(3-chloro-4-fluorophenylamino)-4-((1-methyl-1H-pyrazol-4-yl)methylamino)pyrimidin-5-yl)nicotinic acid] gave an inhibition at 13 µM of 117%.

COCC(COC)Nc1nc(Nc2ccc(F)c(Cl)c2)ncc1-c1cncc(C(=O)O)c1 [Example 283, 5-(2-(3-chloro-4-fluorophenylamino)-4-(1,3-dimethoxypropan-2-ylamino)pyrimidin-5-yl)nicotinic acid] showed an inhibition at 13 µM of 89.9%.
